Experimental data published in paper PMC12377202, “Design, synthesis, and cytotoxic evaluation of quinazoline-based derivatives as VEGER-2 inhibitors: comparative study against EGFR kinase activity, induction of apoptosis, and molecular docking study” (RSC Advances, 2025).

Columns and labels:
Format in all cases: cell-based, human
TNF-alpha = TNF-alpha level in HepG-2 cells; conditions: control 43.48
Method: (§1) All synthesized compounds were tested at their cytotoxic concentrations in HepG-2 cells for analysis of gene expression levels of apoptotic markers caspase-3, caspase-9, TNF-α, and IL-6 proteins, and only two active compounds were tested for BAX and Bcl-2 proteins.
(§2) through Flow cytometric analysis.
(§3) Pellets were collected again and incubated with
(§4) Total RNA from vehicle-treated
(§5) (Thermo Scientific, USA).
(§6) All experiments were performed in […]

caspase-9 = assay: Caspase-9 expression level in HepG-2 cells; conditions: for Caspase-9 ± SE: HepG-2, at IC50 concentrations, control 11.01; for caspase-9 expression level, fold increase: HepG-2, vs control cells
Method: as §1, §2, §3, §4, §5, §6

MCF-7 = assay: MTT anti-proliferative assay, MCF-7; conditions: Homo sapiens, MCF7; for viability at 0.195 µmol / cytotoxicity at 0.195 µmol: MCF-7, 0.195 umol; for cytotoxicity at 0.195 µmol / cytotoxicity at 0.391 µmol / cytotoxicity at 0.781 µmol / cytotoxicity at 1.563 µmol / cytotoxicity at 3.125 µmol / cytotoxicity at 6.25 µmol / cytotoxicity at 12.5 µmol / cytotoxicity at 25 µmol: read-out: Toxicity %; for viability at 0.391 µmol / cytotoxicity at 0.391 µmol: MCF-7, 0.391 umol; for viability at 0.781 µmol / cytotoxicity at 0.781 µmol: MCF-7, 0.781 umol; for viability at 1.563 µmol / cytotoxicity at 1.563 µmol: MCF-7, 1.563 umol; for viability at 3.125 µmol / cytotoxicity at 3.125 µmol: MCF-7, 3.125 umol; for viability at 6.25 µmol / cytotoxicity at 6.25 µmol: MCF-7, 6.25 umol; for viability at 12.5 µmol / cytotoxicity at 12.5 µmol: MCF-7, 12.5 umol; for viability at 25 µmol / cytotoxicity at 25 µmol: MCF-7, 25 umol; for IC50: MTT, MCF-7, read-out: Cytotoxicity against cancer cells IC50 MCF-7
HepG-2 = assay: MTT anti-proliferative assay, HepG-2; conditions: Homo sapiens, HepG2; for viability at 0.195 µg/mL / cytotoxicity at 0.195 µg/mL: HepG-2, 0.195 ug/ml; for cytotoxicity at 0.195 µg/mL / cytotoxicity at 0.391 µg/mL / cytotoxicity at 0.781 µg/mL / cytotoxicity at 1.563 µg/mL / cytotoxicity at 3.125 µg/mL / cytotoxicity at 6.25 µg/mL / cytotoxicity at 12.5 µg/mL / cytotoxicity at 25 µg/mL: read-out: Toxicity %; for viability at 0.391 µg/mL / cytotoxicity at 0.391 µg/mL: HepG-2, 0.391 ug/ml; for viability at 0.781 µg/mL / cytotoxicity at 0.781 µg/mL: HepG-2, 0.781 ug/ml; for viability at 1.563 µg/mL / cytotoxicity at 1.563 µg/mL: HepG-2, 1.563 ug/ml; for viability at 3.125 µg/mL / cytotoxicity at 3.125 µg/mL: HepG-2, 3.125 ug/ml; for viability at 6.25 µg/mL / cytotoxicity at 6.25 µg/mL: HepG-2, 6.25 ug/ml; for viability at 12.5 µg/mL / cytotoxicity at 12.5 µg/mL: HepG-2, 12.5 ug/ml; for viability at 25 µg/mL / cytotoxicity at 25 µg/mL: HepG-2, 25 ug/ml; for IC50: MTT, HepG-2, read-out: Cytotoxicity against cancer cells IC50 HepG-2
IL-6R = IL-6R level in HepG-2 cells; conditions: control 44.10; for IL-6R ± SE: HepG-2, at IC50 concentrations; for IL-6 ±SE: raw data, HepG2
Method: as §1, §2, §3, §4, §5, §6

caspase-3 = assay: Caspase-3 expression level in HepG-2 cells; conditions: for Caspase-3 ± SE: HepG-2, at IC50 concentrations, control 0.460; for caspase-3 expression level, fold increase: HepG-2, vs control cells
Method: as §1, §2, §3, §4, §5, §6

K-562 = assay: MTT anti-proliferative assay, K-562; conditions: Homo sapiens, K562; for viability at 0.195 µmol / cytotoxicity at 0.195 µmol: K-562, 0.195 umol; for cytotoxicity at 0.195 µmol / cytotoxicity at 0.391 µmol / cytotoxicity at 0.781 µmol / cytotoxicity at 1.563 µmol / cytotoxicity at 3.125 µmol / cytotoxicity at 6.25 µmol / cytotoxicity at 12.5 µmol / cytotoxicity at 25 µmol: read-out: Toxicity %; for viability at 0.391 µmol / cytotoxicity at 0.391 µmol: K-562, 0.391 umol; for viability at 0.781 µmol / cytotoxicity at 0.781 µmol: K-562, 0.781 umol; for viability at 1.563 µmol / cytotoxicity at 1.563 µmol: K-562, 1.563 umol; for viability at 3.125 µmol / cytotoxicity at 3.125 µmol: K-562, 3.125 umol; for viability at 6.25 µmol / cytotoxicity at 6.25 µmol: K-562, 6.25 umol; for viability at 12.5 µmol / cytotoxicity at 12.5 µmol: K-562, 12.5 umol; for viability at 25 µmol / cytotoxicity at 25 µmol: K-562, 25 umol; for IC50: MTT, K-562, read-out: Cytotoxicity against cancer cells IC50 K-562

O=C(Cn1cnc2cc([N+](=O)[O-])ccc2c1=O)Nc1ccc(Cl)cc1 [9c, N-(4-Chlorophenyl)-2-(7-nitro-4-oxoquinazolin-3(4H)-yl)acetamide] was tested, and the “TNF-alpha ±SE” value (TNF-alpha; HepG-2, at IC50 concentrations) was 16.86 ± 2.39 ng/L, the “TNF-alpha ±SE” value (TNF-alpha; raw data, HepG2) was 23.47 ng/L and the “Caspase-9 ± SE” value (caspase-9) was 70.03 ± 0.47 ng/L. The “Caspase-9 ± SE” value (caspase-9; listed as N2) was 70.03 ng/L, the “caspase-9 expression level, fold increase” value (caspase-9) was 6.37 fold and the viability at 0.195 µmol (MCF-7) was 91.3%. It also gave a cytotoxicity at 0.195 µmol (MCF-7) of 8.66%, a viability at 0.391 µmol (MCF-7) of 68.1% and a cytotoxicity at 0.391 µmol (MCF-7) of 31.9%. For the same compound, the viability at 0.781 µmol (MCF-7) was 43%, the cytotoxicity at 0.781 µmol (MCF-7) was 57% and the viability at 1.563 µmol (MCF-7) was 27.7%. It also gave a cytotoxicity at 1.563 µmol (MCF-7) of 72.3%, a viability at 3.125 µmol (MCF-7) of 15.2% and a cytotoxicity at 3.125 µmol (MCF-7) of 84.8%. It also gave a viability at 6.25 µmol (MCF-7) of 11.2%, a cytotoxicity at 6.25 µmol (MCF-7) of 88.8% and a viability at 12.5 µmol (MCF-7) of 8.44%. It also gave a cytotoxicity at 12.5 µmol (MCF-7) of 91.6%, a viability at 25 µmol (MCF-7) of 6.82% and a cytotoxicity at 25 µmol (MCF-7) of 93.2%. The IC50 (MCF-7) was 672.4 ± 4.9 nM, the viability at 0.195 µg/mL (HepG-2) was 83.4% and the cytotoxicity at 0.195 µg/mL (HepG-2) was 16.6%. It also gave a viability at 0.391 µg/mL (HepG-2) of 70.3%, a cytotoxicity at 0.391 µg/mL (HepG-2) of 29.7% and a viability at 0.781 µg/mL (HepG-2) of 56.1%. The cytotoxicity at 0.781 µg/mL (HepG-2) was 43.9%, the viability at 1.563 µg/mL (HepG-2) was 34.4% and the cytotoxicity at 1.563 µg/mL (HepG-2) was 65.6%. For the same compound, the viability at 3.125 µg/mL (HepG-2) was 16.8%, the cytotoxicity at 3.125 µg/mL (HepG-2) was 83.2% and the viability at 6.25 µg/mL (HepG-2) was 11.7%. It also gave a cytotoxicity at 6.25 µg/mL (HepG-2) of 88.3%, a viability at 12.5 µg/mL (HepG-2) of 7.36% and a cytotoxicity at 12.5 µg/mL (HepG-2) of 92.6%. The viability at 25 µg/mL (HepG-2) was 6.23%, the cytotoxicity at 25 µg/mL (HepG-2) was 93.8% and the IC50 (HepG-2) was 1000 ± 4.9 nM. For the same compound, the “IL-6R ± SE” value (IL-6R) was 11.87 ± 0.80 ng/L, the “IL-6 ±SE” value (IL-6R) was 24.59 ng/L and the “Caspase-3 ± SE” value (caspase-3) was 1.77 ± 0.08 ng/mL. The “Caspase-3 ± SE” value (caspase-3; listed as N2) was 1.77 ng/mL, the “caspase-3 expression level, fold increase” value (caspase-3) was 3.85 fold and the viability at 0.195 µmol (K-562) was 80.6%. The cytotoxicity at 0.195 µmol (K-562) was 19.4%, the viability at 0.391 µmol (K-562) was 60% and the cytotoxicity at 0.391 µmol (K-562) was 40%. For the same compound, the viability at 0.781 µmol (K-562) was 33.6%, the cytotoxicity at 0.781 µmol (K-562) was 66.4% and the viability at 1.563 µmol (K-562) was 22.3%. The cytotoxicity at 1.563 µmol (K-562) was 77.7%, the viability at 3.125 µmol (K-562) was 11% and the cytotoxicity at 3.125 µmol (K-562) was 89%. The viability at 6.25 µmol (K-562) was 8.29%, the cytotoxicity at 6.25 µmol (K-562) was 91.7% and the viability at 12.5 µmol (K-562) was 7.43%. For the same compound, the cytotoxicity at 12.5 µmol (K-562) was 92.6%, the viability at 25 µmol (K-562) was 7.02% and the cytotoxicity at 25 µmol (K-562) was 93%. It also gave an IC50 (K-562) of 538.8 ± 1.7 nM.
For O=C(Cn1cnc2cc([N+](=O)[O-])ccc2c1=O)Nc1ccc(F)c(Cl)c1 [9e, N-(3-Chloro-4-fluorophenyl)-2-(7-nitro-4-oxoquinazolin-3(4H)-yl)acetamide], the “TNF-alpha ±SE” value (TNF-alpha; HepG-2, at IC50 concentrations) was 34.27 ± 1.94 ng/L, the “TNF-alpha ±SE” value (TNF-alpha; raw data, HepG2) was 32.07 ng/L and the “Caspase-9 ± SE” value (caspase-9) was 25.20 ± 1.27 ng/L. For the same compound, the “Caspase-9 ± SE” value (caspase-9; listed as N4) was 25.20 ng/L, the “caspase-9 expression level, fold increase” value (caspase-9) was 2.29 fold and the viability at 0.195 µmol (MCF-7) was 54.8%. It also gave a cytotoxicity at 0.195 µmol (MCF-7) of 45.2%, a viability at 0.391 µmol (MCF-7) of 29.1% and a cytotoxicity at 0.391 µmol (MCF-7) of 70.9%. It also gave a viability at 0.781 µmol (MCF-7) of 20.9%, a cytotoxicity at 0.781 µmol (MCF-7) of 79.1% and a viability at 1.563 µmol (MCF-7) of 13.7%. For the same compound, the cytotoxicity at 1.563 µmol (MCF-7) was 86.3%, the viability at 3.125 µmol (MCF-7) was 9.89% and the cytotoxicity at 3.125 µmol (MCF-7) was 90.1%. It also gave a viability at 6.25 µmol (MCF-7) of 9.23%, a cytotoxicity at 6.25 µmol (MCF-7) of 90.8% and a viability at 12.5 µmol (MCF-7) of 8.22%. The cytotoxicity at 12.5 µmol (MCF-7) was 91.8%, the viability at 25 µmol (MCF-7) was 6.51% and the cytotoxicity at 25 µmol (MCF-7) was 93.5%. The IC50 (MCF-7) was 231.4 ± 2.3 nM, the viability at 0.195 µg/mL (HepG-2) was 87.5% and the cytotoxicity at 0.195 µg/mL (HepG-2) was 12.5%. The viability at 0.391 µg/mL (HepG-2) was 63.9%, the cytotoxicity at 0.391 µg/mL (HepG-2) was 36.1% and the viability at 0.781 µg/mL (HepG-2) was 55.2%. For the same compound, the cytotoxicity at 0.781 µg/mL (HepG-2) was 44.8%, the viability at 1.563 µg/mL (HepG-2) was 49.6% and the cytotoxicity at 1.563 µg/mL (HepG-2) was 50.4%. It also gave a viability at 3.125 µg/mL (HepG-2) of 25.9%, a cytotoxicity at 3.125 µg/mL (HepG-2) of 74.1% and a viability at 6.25 µg/mL (HepG-2) of 16.3%. It also gave a cytotoxicity at 6.25 µg/mL (HepG-2) of 83.7%, a viability at 12.5 µg/mL (HepG-2) of 8.39% and a cytotoxicity at 12.5 µg/mL (HepG-2) of 91.6%. It also gave a viability at 25 µg/mL (HepG-2) of 6.85%, a cytotoxicity at 25 µg/mL (HepG-2) of 93.2% and an IC50 (HepG-2) of 1510 ± 2 nM. For the same compound, the “IL-6R ± SE” value (IL-6R) was 25.25 ± 0.16 ng/L, the “IL-6 ±SE” value (IL-6R) was 11.93 ng/L and the “Caspase-3 ± SE” value (caspase-3) was 0.77 ± 0.069 ng/mL. For the same compound, the “Caspase-3 ± SE” value (caspase-3; listed as N4) was 0.77 ng/mL, the “caspase-3 expression level, fold increase” value (caspase-3) was 1.6 fold and the viability at 0.195 µmol (K-562) was 60.6%. For the same compound, the cytotoxicity at 0.195 µmol (K-562) was 39.4%, the viability at 0.391 µmol (K-562) was 47% and the cytotoxicity at 0.391 µmol (K-562) was 53%. For the same compound, the viability at 0.781 µmol (K-562) was 26.6%, the cytotoxicity at 0.781 µmol (K-562) was 73.4% and the viability at 1.563 µmol (K-562) was 19%. The cytotoxicity at 1.563 µmol (K-562) was 81%, the viability at 3.125 µmol (K-562) was 13.7% and the cytotoxicity at 3.125 µmol (K-562) was 86.3%. For the same compound, the viability at 6.25 µmol (K-562) was 10.8%, the cytotoxicity at 6.25 µmol (K-562) was 89.2% and the viability at 12.5 µmol (K-562) was 8.13%. It also gave a cytotoxicity at 12.5 µmol (K-562) of 91.9%, a viability at 25 µmol (K-562) of 6.53% and a cytotoxicity at 25 µmol (K-562) of 93.5%. It also gave an IC50 (K-562) of 346.9 ± 2.9 nM.
